# In article PMC4961704, “Synthesis and Biological Evaluation of Thiophene-Based Cannabinoid Receptor Type 2 Radiotracers for PET Imaging” (Frontiers in Neuroscience, 2016):
# Entries after “also recorded” stand apart in the source; their conditions may differ. Like-named read-outs stand apart in the source and are kept apart here.
# Experiments:
# [1] = system: CB2-positive mouse spleen tissue; experiment: In vitro autoradiography on mouse spleen tissue sections; format: binding, CD1 mouse; details: 5 nM radiotracer; baseline vs blockade with 10 μM GW405833; n = 2
# Protocol: (§1) Autoradiography was performed on rat/mouse spleen tissue. Sections were prepared in 20 μm thickness using a cryostat (Cryo-Star NX 50; Thermo Scientific). The tissue slices were adsorbed to SuperFrost Plus (Menzel) slides and stored at −20°C until use. After thawing on ice for 10 min, sections were pre-incubated in the assay buffer containing 50 mM TRIS, 5 mM MgCl2, 2.5 mM EDTA, and 0.5% BSA (pH 7.4). […] In order to test for specificity toward CB2, a solution containing both radiotracer and an excess of CB2 specific partial agonist GW405833 (10 μM) was prepared and added to the tissue. The tissue slices were washed twice with assay buffer (each 2 min) and twice with distilled water (each 5 s) on ice, air dried, and exposed to a phosphor imager plate for a period of 25 min. The plate was scanned using a BAS5000 reader (Fujifilm, Dielsdorf, CH).
# [2] = system: CB2-positive rat spleen tissue; experiment: In vitro autoradiography on rat spleen tissue sections; format: binding, Wistar rat; details: 5 nM radiotracer; baseline vs blockade with 10 μM GW405833; n = 2
# Protocol: as §1
# [3] = system: CB2-positive spleen; experiment: In vivo PET/CT of the spleen region after tail-vein injection; set-up: species or system Wistar rat
# Protocol: Under baseline conditions, radiotracer accumulation was recorded in the region of the spleen in dynamic PET acquisition mode over 60 min (n = 2). During this whole time period rats were kept under anesthesia, body temperature and respiratory rate were constantly monitored. Under blockade conditions, 1.5 mg/kg GW405833 was injected shortly before radiotracer application in two of the four rats. Acquired PET data were reconstructed as user-defined time frames with a voxel size of 0.3875 × 0.3875 × 0.775 mm. For anatomical orientation, CT scans were acquired after each PET scan. Images were evaluated with PMOD v3.4 (PMOD Technologies Inc., Zurich, CH) software. Regions of interest (spleen, liver, and muscle) were drawn manually using the PMOD fusion tool. Time activity curves (TACs) for spleen, liver and muscle were expressed as standardized uptake values (SUV) which are the decay-corrected radioactivity per cm^3 divided by the injected radioactivity dose per gram of body weight.
# [4] = biological target: T1, hCB2 (Homo sapiens, UniProt P34972); set-up: method as in earlier work; details: known ligands, entry 1–3; ref Showalter et al., 1996; Lan et al., 1999; Valenzano et al., 2005; cited from earlier work
# T1 construct: purchased PerkinElmer; host or cells: CHO-K1 cells stably transfected
# [5] = biological target: T2, hCB1 (Homo sapiens, UniProt P21554); set-up: method as in earlier work; details: known ligands, entry 1–3; ref Showalter et al., 1996; Lan et al., 1999; Valenzano et al., 2005; cited from earlier work
# T2 construct: purchased PerkinElmer; host or cells: CHO-K1 cells stably transfected
# [6] = biological target: T1, hCB2; experiment: Competitive in vitro binding assay with [3H]CP-55,940, membranes of CHO-K1 cells stably transfected with hCB2; details: displacement of [3H]CP-55,940 (1.4 nM), 30°C, 90 min; three independent experiments in triplicate; Cheng-Prusoff
# Protocol: (§2) A dilution series ranging from 1 pM to 1 mM in assay buffer (50 mM TRIS, 1 mM EDTA, 3 mM MgCl2 and 0.05% bovine serum albumin, pH adjusted to 7.4) was prepared for each ligand to be tested. […] The samples were incubated at 30°C for 90 min and subsequently diluted with ice cold assay buffer (3 mL) in order to be vacuum-filtered through Whatman GF/C filters (pre-treated with aq. polyethylenimine, 0.05%). Each sample was washed twice with ice cold assay buffer (3 mL) and filtered again. After addition of scintillation cocktail (Ultima Gold, Perkin Elmer), radioactivity was measured using a Beckman LS 6500 Liquid Scintillation Counter. IC50 mean values were calculated after performing three independent experiments, each as triplicate.
# (§3) Binding affinity studies were performed using membranes stably transfected with human CB1 and CB2, respectively.
# [7] = biological target: T2, hCB1; experiment: Competitive in vitro binding assay with [3H]CP-55,940, membranes of CHO-K1 cells stably transfected with hCB1; details: displacement of [3H]CP-55,940 (1.4 nM), 30°C, 90 min; three independent experiments in triplicate; Cheng-Prusoff
# Protocol: as §2, §3
# T2 sequence (P21554 whole entry): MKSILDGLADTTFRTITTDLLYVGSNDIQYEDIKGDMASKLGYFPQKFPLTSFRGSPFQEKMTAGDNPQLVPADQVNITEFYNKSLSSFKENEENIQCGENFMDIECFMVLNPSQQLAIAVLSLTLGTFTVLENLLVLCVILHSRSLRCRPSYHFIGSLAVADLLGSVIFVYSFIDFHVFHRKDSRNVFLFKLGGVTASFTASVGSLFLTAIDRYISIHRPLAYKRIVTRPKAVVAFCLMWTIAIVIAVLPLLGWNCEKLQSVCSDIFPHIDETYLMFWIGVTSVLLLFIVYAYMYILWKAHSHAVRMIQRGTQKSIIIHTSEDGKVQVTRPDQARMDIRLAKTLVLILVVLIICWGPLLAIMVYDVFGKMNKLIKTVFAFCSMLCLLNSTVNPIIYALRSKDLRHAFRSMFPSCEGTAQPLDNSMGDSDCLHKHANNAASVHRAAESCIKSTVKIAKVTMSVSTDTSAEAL
# T1 sequence (P34972 whole entry): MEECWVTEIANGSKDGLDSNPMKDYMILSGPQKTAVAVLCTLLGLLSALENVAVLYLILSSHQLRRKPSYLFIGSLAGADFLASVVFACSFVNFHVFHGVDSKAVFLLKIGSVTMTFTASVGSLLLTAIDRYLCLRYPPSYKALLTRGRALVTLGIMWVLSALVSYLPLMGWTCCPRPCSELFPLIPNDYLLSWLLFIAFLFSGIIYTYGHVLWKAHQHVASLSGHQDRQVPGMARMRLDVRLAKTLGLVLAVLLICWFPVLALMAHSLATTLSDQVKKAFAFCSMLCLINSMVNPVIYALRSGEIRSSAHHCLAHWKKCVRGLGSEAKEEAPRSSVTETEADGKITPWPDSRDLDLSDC
smiles,measurement,setting,value
[11CH3]OC(=O)c1c(NC(=O)C23CC4CC(CC(O)(C4)C2)C3)sc2c1CCCC2 [[^11C]AAT-015],specificity of binding to mouse spleen tissue (autoradiography),[1],high unspecific binding
same,specificity of binding to rat spleen tissue (autoradiography),[2],high unspecific binding
same,spleen uptake of radiotracer (PET),"[3]; baseline, 10–15 MBq i.v., 0–60 min post injection",no accumulation; also recorded: low uptake
same,"spleen uptake, TACs baseline vs blockade (PET)","[3]; blockade with 1.5 mg/kg GW405833 shortly before tracer, 60 min",no difference
COc1ccc2c(c1)c(CCN1CCOCC1)c(C)n2C(=O)c1cccc(Cl)c1Cl [GW405833],Ki,[4],3.9 ± 1.6 nM
same,Ki,[5],4770 ± 1680 nM
CCCc1c(C)sc(NC(=O)C23CC4CC(CC(C4)C2)C3)c1C(=O)O[11CH3] [[^11C]AAT-778],specificity of binding to mouse spleen tissue (autoradiography),[1],No blocking effect; also recorded: high unspecific binding
same,specificity of binding to rat spleen tissue (autoradiography),[2],No blocking effect; also recorded: high unspecific binding
"CCCc1c(C)sc(NC(=O)C23CC4CC(CC(C4)C2)C3)c1C(=O)OC [AAT-778, Methyl 2-(adamantane-1-carboxamido)-5-methyl-4-propylthiophene-3-carboxylate]",Ki,[6],4.3 ± 0.7 nM
same,Ki,[7],1100 ± 100 nM
